The text below walks through data of article PMC6780063 (Marine Drugs, 2019).

This experiment has as its target α1β1γδ nAChR (Homo sapiens, UniProt P02708+P07510+P11230+Q07001). The experiment is described as follows: cell-based. It is filed as cell-based.

pIC50: −log10 of the molar value. Residues, ends and D or L forms follow the SMILES beside them.

Sequence of α1β1γδ nAChR (P02708 21-457 limits assumed): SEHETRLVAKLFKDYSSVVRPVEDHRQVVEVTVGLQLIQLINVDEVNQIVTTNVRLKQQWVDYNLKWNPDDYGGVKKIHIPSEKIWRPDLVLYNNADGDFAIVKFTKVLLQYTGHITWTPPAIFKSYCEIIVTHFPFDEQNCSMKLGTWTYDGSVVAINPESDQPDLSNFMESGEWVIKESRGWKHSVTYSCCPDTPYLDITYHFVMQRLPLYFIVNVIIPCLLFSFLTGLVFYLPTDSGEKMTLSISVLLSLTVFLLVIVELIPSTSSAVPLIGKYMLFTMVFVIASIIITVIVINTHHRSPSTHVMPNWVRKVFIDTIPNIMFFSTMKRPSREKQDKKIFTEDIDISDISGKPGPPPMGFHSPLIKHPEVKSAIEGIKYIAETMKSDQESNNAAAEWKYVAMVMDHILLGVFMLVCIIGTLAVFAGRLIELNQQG
Sequence of α1β1γδ nAChR (P11230 24-501 partner limits assumed): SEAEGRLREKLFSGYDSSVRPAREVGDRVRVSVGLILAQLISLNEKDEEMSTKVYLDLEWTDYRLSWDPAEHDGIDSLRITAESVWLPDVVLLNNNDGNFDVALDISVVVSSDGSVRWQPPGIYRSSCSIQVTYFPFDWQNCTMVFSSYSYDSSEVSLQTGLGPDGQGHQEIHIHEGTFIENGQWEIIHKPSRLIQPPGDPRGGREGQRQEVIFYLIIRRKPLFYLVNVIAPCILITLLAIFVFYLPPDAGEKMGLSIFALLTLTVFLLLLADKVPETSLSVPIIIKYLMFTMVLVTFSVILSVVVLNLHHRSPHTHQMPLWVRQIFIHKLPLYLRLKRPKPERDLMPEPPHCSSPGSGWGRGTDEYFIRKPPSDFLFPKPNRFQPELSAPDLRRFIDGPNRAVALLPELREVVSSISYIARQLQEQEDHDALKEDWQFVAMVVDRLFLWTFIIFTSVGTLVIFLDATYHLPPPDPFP
Sequence of α1β1γδ nAChR (P07510 23-517 limits assumed): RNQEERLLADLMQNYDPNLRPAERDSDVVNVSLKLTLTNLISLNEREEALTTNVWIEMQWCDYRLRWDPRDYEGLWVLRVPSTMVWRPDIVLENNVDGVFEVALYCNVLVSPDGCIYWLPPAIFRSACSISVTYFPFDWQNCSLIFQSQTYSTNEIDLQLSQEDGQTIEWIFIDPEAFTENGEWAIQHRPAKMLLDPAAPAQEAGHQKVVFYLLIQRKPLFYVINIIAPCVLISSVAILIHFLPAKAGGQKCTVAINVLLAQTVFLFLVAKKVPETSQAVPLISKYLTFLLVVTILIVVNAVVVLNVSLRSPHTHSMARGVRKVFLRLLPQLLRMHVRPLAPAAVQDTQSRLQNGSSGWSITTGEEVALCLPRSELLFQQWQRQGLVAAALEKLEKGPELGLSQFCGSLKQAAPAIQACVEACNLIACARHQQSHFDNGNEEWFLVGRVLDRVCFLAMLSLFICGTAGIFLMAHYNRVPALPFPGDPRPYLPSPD
Sequence of α1β1γδ nAChR (Q07001 22-517 limits assumed): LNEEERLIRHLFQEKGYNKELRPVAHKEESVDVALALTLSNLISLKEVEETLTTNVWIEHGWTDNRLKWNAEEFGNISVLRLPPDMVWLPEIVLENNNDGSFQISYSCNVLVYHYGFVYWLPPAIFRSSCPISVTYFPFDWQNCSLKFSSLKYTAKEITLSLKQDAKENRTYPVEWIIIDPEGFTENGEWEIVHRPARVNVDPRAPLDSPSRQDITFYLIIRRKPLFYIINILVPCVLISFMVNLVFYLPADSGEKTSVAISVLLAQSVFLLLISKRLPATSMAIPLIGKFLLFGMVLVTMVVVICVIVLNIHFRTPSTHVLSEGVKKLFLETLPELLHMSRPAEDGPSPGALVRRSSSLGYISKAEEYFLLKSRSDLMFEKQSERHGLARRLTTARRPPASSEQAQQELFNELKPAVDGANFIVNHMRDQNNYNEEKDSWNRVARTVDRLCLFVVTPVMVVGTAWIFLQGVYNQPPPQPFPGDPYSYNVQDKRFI

As to `CSCC[C@@H]1NC(=O)[C@@H]2CSSC[C@H](NC(=O)[C@H](CCSC)NC(=O)[C@@H](N)CC(=O)O)C(=O)N[C@@H](CSSC[C@@H](C(N)=O)NC(=O)[C@H](CC(N)=O)NC(=O)[C@H](Cc3ccccc3)NC(=O)[C@H](Cc3c[nH]cn3)NC(=O)[C@H](CC(N)=O)NC1=O)C(=O)N[C@@H](Cc1c[nH]cn1)C(=O)N1CCC[C@H]1C(=O)N[C@@H](C)C(=O)N2` [MilIA] (HELM PEPTIDE1{D.M.C.C.H.P.A.C.M.N.H.F.N.C.[am]}$PEPTIDE1,PEPTIDE1,3:R3-8:R3|PEPTIDE1,PEPTIDE1,4:R3-14:R3$$$V2.0), the “inhibition of the ACh-evoked current amplitude, α1β1γδ” value is recorded as 20%. For the same compound, the pIC50 – broadly, the negative decadic logarithm of the IC50, by convention in mol/L – (SEM) was 4.88.
